Laboratory results as given in paper PMC5463454 (Cancer discovery, 2016).

Legend:
other relevant kinases = details: cited from earlier work
[1] = test system: tumor cell line and patient-derived xenograft models; test: Xenograft tumor growth inhibition; type: in vivo, mice; details: day 21, daily oral 100 mg/kg
glucose and insulin = test: Blood glucose, insulin and HbA1c; type: in vivo, human
[2] = test system: all three isoforms of AKT; details: cited from earlier work
[3] = models with alterations in PTEN or PIK3CA, n = 21
[4] = models without alterations, n = 6

## CC(C)NC[C@@H](C(=O)N1CCN(c2ncnc3c2[C@H](C)C[C@H]3O)CC1)c1ccc(Cl)cc1 [Ipatasertib]
Other relevant kinases
  selectivity over other relevant kinases: greater than 100 fold
[1]; [3]
  mean %TGI (±SEM): 95 ± 11%
  median %TGI: 97%
[1]; [4]
  mean %TGI (±SEM): 38 ± 12%
  median %TGI: 44%
Glucose and insulin; after ipatasertib dose
  time for glucose and insulin levels to return to baseline: ≤ 6 h
Glucose and insulin; all patients in stage 1
  baseline glucoses after two cycles: did not significantly elevate baseline glucoses
Glucose and insulin; almost all patients dosed with ipatasertib ≥200 mg
  nonfasting blood glucose: transient nonfasting (post-meal) asymptomatic hyperglycemia
Glucose and insulin; including patients at 800 mg
  glycated hemoglobin A1c (HbA1c), end of study vs baseline at screening: did not change significantly
Glucose and insulin; ipatasertib ≥600 mg
  elevation in insulin: up to 500 fold
[2]
  IC50: 5 to 18 nM
